Data as given in publication PMC3722118, “Hellebrin and its aglycone form hellebrigenin display similar in vitro growth inhibitory effects in cancer cells and binding profiles to the alpha subunits of the Na^+/K^+-ATPase” (Molecular Cancer, 2013).
Where two headings read alike, the source gives them in different places.

What was measured:
NHDF fibroblasts = assay: MTT growth inhibition in non-cancerous control cell line; assay type: cell-based; conditions: normal human fibroblasts, read-out: in vitro growth inhibitory effects (IC50) in NHDF fibroblasts
Source text: The histological types and origins of the eight human cancer cell lines that were used for the MTT colorimetric assay are detailed in the legend of Table 1. Two mouse cancer cell lines were also used, the CT26.WT colon cancer cell line (ATCC code CRL-2638) and the B16F10 melanoma cell line (ATCC code CRL-6475). Both cell lines were obtained from the American Type Culture Collection (ATCC, Manassas, VA). A control cell line (human NHDF fibroblasts) was obtained from PromoCell (code c-12300; Heidelberg, Germany). The cell lines detailed in Figure 2A are a generous gift from the National Cancer Institute (NCI, Bethesda, USA) to Steven Karlish’s lab.
The cancer cells were cultured in RPMI (Lonza, Verviers, Belgium) medium supplemented with 10% heat-inactivated fetal calf serum (Lonza). All culture media were supplemented with 4 mM glutamine, 100 μg/mL gentamicin, 200 U/mL penicillin and 200 μg/mL streptomycin (Lonza). The NHDF fibroblasts were cultured in Lonza medium cc3132 KT FGM-2 BulletKit.
The overall growth level of the human cancer cell lines was determined using a colorimetric MTT (3-(4,5-dimethylthiazol-2yl)-2,5-diphenyltetrazolium bromide, Sigma, Belgium) assay as detailed previously. Briefly, this test measures the number of metabolically active (thus living) cells that are able to transform the yellow MTT into the blue formazan dye via a mitochondrial reduction involving succinate dehydrogenase. The amount of formazan obtained at the end of the experiment (measured by spectrophotometry) is directly proportional to the number of living cells. The determination of the optical density in the control compared to the treated cells therefore enables quantitative measurements of the effects of compounds on the growth of normal as well as cancer cells in vitro.
Each experimental condition was performed in six replicates.

[1] = biological target: T1, purified human α1β1 Na+/K+-ATPase (Homo sapiens, UniProt P05023); assay: Inhibition of NaK activity of purified detergent-soluble complex (Pi release); assay type: biochemical; conditions: for selectivity in inhibition of NaK activity of all of the purified complexes: comparison of α1β1, α2β1, α3β1 purified complexes
T1 construct: made in house; host or cells: Pichia pastoris strain SMD1165; detergent-soluble complex purified
Experimental: The inhibition of NaK activity of the purified detergent-soluble α1β1, α2β1, and α3β1 complexes by cardiotonic steroids and an analysis of the inhibition data (Ki values) were also performed as previously described. The inhibitors were added to the recombinant enzyme (0.08–0.2 μg of protein) in 400 μl of reaction medium containing 130 mM NaCl, 5 mM KCl, 3 mM MgCl2, 25 mM histidine, pH 7.4, 1 mM EGTA, 0.01 mg/ml SOPS, 0.001 mg/ml cholesterol, and 0.005 mg/ml C12 E8 in 48-well plates. The reaction (37°C for 1 h) was started by the addition of 1mM ATP. Pi release was measured with a malachite green dye to detect the phosphor-molybdate (Pi Color Lock, Innova Biosciences). The percent inhibition V /V0 was calculated for each cardiac glycoside concentration, and Ki values were obtained by fitting the data to the function V /V0 = Ki /([CG] + Ki ) (using Kaleidagraph). V0 and V represent the control rate and rate of NaK-ATPase activity at particular concentrations of cardiac glycosides, [CG], respectively.
Average KD or Ki values ± SEM for each isoform were calculated. Statistical significance was calculated by the unpaired Students t-test. P values <0.05 were considered significant.

[2] = system: GLC-4 and ABCC1- and LRP-overexpressing GLC-4/ADR small cell lung carcinoma cells; assay: MTT viability, MDR model; assay type: cell-based, human; conditions: 72 hours
Source text: (§1) The following human cancer cell lines and their chemoresistant sublines were used in this study: the colon carcinoma cell line HCT-116 p53/wt and the p53 knock-out cell line HCT-116 p53/ko (generously donated by B. Vogelstein, Johns Hopkins University, Baltimore, MD, USA); the epidermal carcinoma-derived cell line KB-3-1 and the ABCB1-overexpressing subline KB-C-1 (generously donated by D.W. Shen, Bethesda, USA); the small cell lung carcinoma cell line GLC-4 and the ABCC1- and LRP-overexpressing subline GLC-4/ADR (from E.G. de Vries, Groningen, Netherlands); the ovarian carcinoma cell line A2780 and the cisplatin resistant subline A2780cis (purchased from Sigma-Aldrich); and the promyelocytic leukemia cell line HL60 and the mitoxantrone resistant subline HL60/mx (generously donated by G. Harker, Salt Lake City, USA). All cell lines were grown in RPMI 1640 supplemented with 10% fetal bovine serum with the exception of the HCT-116 cells, which were grown in McCoy’s medium with 10% serum.
(§2) Figure 4 Impact of different MDR mechanisms on the cytotoxicity of hellebrigenin. […] Viability was determined using a 3-(4,5-dimethythiazol-2-yl)-2,5-diphenyltetrazolium bromide (MTT) colorimetric assay. […]

[3] = system: KB-3-1 and ABCB1-overexpressing KB-C-1 cells; assay: MTT viability, MDR model; assay type: cell-based, human; conditions: 72 hours
Source text: as §1, §2

HT-29 colon cancer cells = assay: O2 consumption rate (MitoXpress assay); assay type: cell-based, human; conditions: compounds at their IC50 (MTT), 24 h
Experimental: For enzymatic determination of lactate production, confluent tumor cells were incubated with 10 mM glucose for 24 hours. Culture medium was then filtered through centrifugation columns with a 10 KDa cutoff, and L-lactate concentrations were determined on an ISCUSflex analyzer (CMA Microdialysis AB, Solna, Sweden). O2 consumption was determined using the MitoXpress assay according to the manufacturer’s instructions (LuxCell Biosciences, Cork, Ireland). Briefly, after adding the oxygen probe to tumor cells cultured for 24 hours in 96-well microplates with or without the tested compounds, the wells were sealed with mineral oil, and respiration was evaluated using time-resolved fluorescent plate readers. Under these conditions, O2 depletion was translated into an increase in probe phosphorescence signal, and the slope of this signal was used to derive the O2 consumption rate.
Figure 6 Metabolic profiling of human HT29 colon cancer cells treated with cardiotonic steroids. A: Extracellular lactate concentrations and B: O2 consumption rates in HT29 cancer cells treated with the indicated compounds at their IC50in vitro growth inhibitory concentrations (see Table 1). The data (mean ± SEM from triplicates) are expressed in mM lactate accumulated in the extracellular medium after 24 hours and arbitrary units derived from time-resolved fluorescent signal.min^-1.

SMILES	IC50 (NHDF fibroblasts) [nM]	Ki ([1]; 37°C, 1 h, 1 mM ATP, read-out: Ki for inhibition of NaK activity of purified human α1β1) [nM]	selectivity in inhibition of NaK activity of all of the purified complexes [1]	sensitivity of GLC4/ADR compared to parental cell line [2]	sensitivity of KB-C-1 compared to parental cell line [3]	IC50 (NHDF fibroblasts; NHDF) [nM]	Ki [1] [nM]	O2 consumption rate (cell respiration) (HT-29 colon cancer cells)
C[C@]12CC[C@H]3[C@@H](CC[C@]4(O)C[C@@H](O)CC[C@]34C=O)[C@@]1(O)CC[C@@H]2c1ccc(=O)oc1 [Hellebrigenin]	> 10000	46 ± 6	no selectivity	equally sensitive	equally sensitive			
C[C@@H]1O[C@@H](O[C@H]2CC[C@]3(C=O)[C@H]4CC[C@]5(C)[C@@H](c6ccc(=O)oc6)CC[C@]5(O)[C@@H]4CC[C@]3(O)C2)[C@H](O)[C@H](O)[C@H]1O[C@@H]1O[C@H](CO)[C@@H](O)[C@H](O)[C@H]1O [Hellebrin]			no selectivity			> 10000	103 ± 7	significantly reduced
